Source: patent US9403804B2, “Inhibitors of c-fms kinase” (Janssen Pharmaceutica NV, priority 2006, dated 2016)

Columns and labels:
[1] = tested on: mouse bone-marrow derived macrophages (BMDM); assay: CSF-1-driven mouse bone-marrow derived macrophages proliferation assay (BrDU incorporation); assay type: cell-based; conditions: 30 hrs culture, read-out: mCSF driven proliferation BMDM (Mouse) IC-50
Protocol: CSF-1-Driven Mouse Bone-Marrow Derived Macrophages Assay
Macrophages are derived by culturing mouse bone marrow in alpha-MEM supplemented with 10% FCS and 50 ng/ml recombinant mouse CSF-1 in bacteriologic dishes. On the sixth day, macrophages are detached from dishes, washed, and resuspended to 0.05 million cells/ml in alpha-MEM containing 10% FCS. One hundred ul of cell suspension are distributed per well into 96 well culture plates. Wells are further supplemented with the addition of 50 ul media containing 15 ng/ml CSF-1, 3 uM Indomethacin, and 3× of a dilution series of test compounds. The cells are cultured for 30 hrs at 37 degrees and 5% CO2. During the final six hours, cultures are supplemented with an additional 30 ul of media containing a 1:500 dilution of bromodeoxyuridine (BrDU). At the end of the culture period, the plates are spun at 1000 RPM for 1 minute and 130 ul of media is removed with a pipet and replaced with 150 ul of fixative solution for 1 hour @ room temperature. The fixative is then dispelled from the plates and the plates allowed to air dry. Incorporation of BrDU into the fixed, dried cells is quantified using a specific ELISA.

c-fms = c-fms (Homo sapiens (Human), UniProt P07333); assay: Autophosphorylation, fluorescence polarization competition immunoassay for c-fms inhibition; assay type: biochemical; conditions: averages of three independent measurements; read-out: 1 nM c-fms; peptide Pi assay IC-50
Protocol: Fluorescence Polarization Competition Immunoassay
The assay buffer used was 100 mM 4-(2-hydroxyethyl)piperazine 1-ethanesulfonic acid (HEPES), pH 7.5, 1 mM 1,4-dithio-DL-threitol (DTT), 0.01% (v/v) Tween-20. Compounds were diluted in assay buffer containing 4% dimethylsulfoxide (DMSO) just prior to the assay. […] The kinase reaction was initiated by adding 2 μL of 5 mM ATP (Sigma) in assay buffer. […] Control reactions were ran in each plate: in positive and negative control wells, assay buffer (made 4% in DMSO) was substituted for the compound; in addition, positive control wells received 1.2 μL of 50 mM ethylenediaminetetraaceticacid (EDTA).
The plates were incubated at room temperature for 45 min. At the end of the incubation, the reaction was quenched with 1.2 μL of 50 mM EDTA (EDTA was not added to the positive control wells at this point; see above). Following a 5-min incubation, each well received 10 μL of a 1:1:3 mixture of anti-phosphotyrosine antibody, 10×, PTK green tracer, 10× (vortexed), FP dilution buffer, respectively (all from PanVera, cat. # P2837). The plate was covered, incubated for 30 min at room temperature and the fluorescence polarization was read on the Analyst. The instrument settings were: 485 nm excitation filter; 530 nm emission filter; Z height: middle of well; G factor: 0.93. […] The reported IC50 values are averages of three independent measurements.

Chain of c-fms (P07333 20-972): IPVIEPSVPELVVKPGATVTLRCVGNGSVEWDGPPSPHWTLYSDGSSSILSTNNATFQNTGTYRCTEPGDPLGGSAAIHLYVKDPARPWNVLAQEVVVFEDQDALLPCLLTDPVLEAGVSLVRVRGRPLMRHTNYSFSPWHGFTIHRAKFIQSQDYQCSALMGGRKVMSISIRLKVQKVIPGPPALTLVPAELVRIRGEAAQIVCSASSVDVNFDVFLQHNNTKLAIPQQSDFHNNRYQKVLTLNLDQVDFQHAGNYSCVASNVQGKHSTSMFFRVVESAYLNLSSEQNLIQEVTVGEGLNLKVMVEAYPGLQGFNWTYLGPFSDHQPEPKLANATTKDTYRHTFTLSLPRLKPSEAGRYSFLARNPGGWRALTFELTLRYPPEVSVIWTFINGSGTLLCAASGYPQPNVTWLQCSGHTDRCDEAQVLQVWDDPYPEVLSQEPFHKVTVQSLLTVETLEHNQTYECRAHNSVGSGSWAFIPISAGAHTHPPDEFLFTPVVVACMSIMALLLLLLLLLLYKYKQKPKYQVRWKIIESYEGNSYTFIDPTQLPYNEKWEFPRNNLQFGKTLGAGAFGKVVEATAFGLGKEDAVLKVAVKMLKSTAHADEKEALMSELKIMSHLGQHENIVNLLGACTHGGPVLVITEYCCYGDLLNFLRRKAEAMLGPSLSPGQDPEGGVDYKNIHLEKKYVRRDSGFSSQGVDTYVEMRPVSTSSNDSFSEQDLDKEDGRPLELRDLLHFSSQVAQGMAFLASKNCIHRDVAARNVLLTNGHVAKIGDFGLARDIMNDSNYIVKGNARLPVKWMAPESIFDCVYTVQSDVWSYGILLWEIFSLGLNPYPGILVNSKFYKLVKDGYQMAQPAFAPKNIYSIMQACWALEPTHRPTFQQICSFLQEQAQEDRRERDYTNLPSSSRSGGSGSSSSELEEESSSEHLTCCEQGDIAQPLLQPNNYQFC

| SMILES | IC50 (c-fms) [nM] | IC50 [1] [nM] |
| --- | --- | --- |
| CC1(C)CC=C(c2cc([C@]3(O)CC[C@@H](C(=O)O)CC3)ccc2NC(=O)c2ncc(C#N)[nH]2)CC1 [Example 2, 4-[4-[(5-Cyano-1H-imidazole-2-carbonyl)-amino]-3-(4,4-dimethyl-cyclohex-1-enyl)-phenyl]-cis-4-hydroxy-cyclohexanecarboxylic acid] | 0.65 | 87 |
| CC1(C)CC=C(c2cc(C3CCC(N4CCOCC4)CC3)ccc2NC(=O)c2nc(C#N)c[nH]2)CC1 (stereo not drawn) [Example 27, 4-Cyano-1H-imidazole-2-carboxylic acid [2-(4,4-dimethyl-cyclohex-1-enyl)-4-(4-morpholin-4-yl-cyclohexyl)-phenyl]-amide] | 1.9 | 16 |
| COCCNC1(c2ccc(NC(=O)c3nc(C#N)c[nH]3)c(C3=CCC(C)(C)CC3)c2)CCCCC1 [Example 43, 4-Cyano-1H-imidazole-2-carboxylic acid {2-(4,4-dimethyl-cyclohex-1-enyl)-4-[1-(2-methoxy-ethylamino)-cyclohexyl]-phenyl}-amide] | 2.9 | 111 |
| CC1(C)CC=C(c2cc([C@]3(O)CC[C@@H](N4CCOCC4)CC3)ccc2NC(=O)c2nc(C#N)c[nH]2)CC1 [Example 44, 4-Cyano-1H-imidazole-2-carboxylic acid [2-(4,4-dimethyl-cyclohex-1-enyl)-4-(cis-1-hydroxy-cis-4-morpholin-4-yl-cyclohexyl)-phenyl]-amide] |  | 2.8 |
| CC1(C)CC=C(c2cc([C@]3(O)CC[C@H](N4CCOCC4)CC3)ccc2NC(=O)c2nc(C#N)c[nH]2)CC1 [Example 45, 4-Cyano-1H-imidazole-2-carboxylic acid [2-(4,4-dimethyl-cyclohex-1-enyl)-4-(cis-1-hydroxy-trans-4-morpholin-4-yl-cyclohexyl)-phenyl]-amide] |  | 8.5 |

Second part, led by results:

| IC50 (c-fms) [nM] | SMILES | IC50 [1] [nM] |
| --- | --- | --- |
| 5.9 | CC1(C)CC=C(c2cc(C3(O)CCCCC3)ccc2NC(=O)c2nc(C#N)c[nH]2)CC1 [Example 1, 4-Cyano-1H-imidazole-2-carboxylic acid [2-(4,4-dimethyl-cyclohex-1-enyl)-4-(1-hydroxy-cyclohexyl)-phenyl]-amide] | 72 |
| 2.3 | CC1(C)CC=C(c2cc(C3(O)CCCC3)ccc2NC(=O)c2nc(C#N)c[nH]2)CC1 [Example 3, 4-Cyano-1H-imidazole-2-carboxylic acid [2-(4,4-dimethyl-cyclohex-1-enyl)-4-(1-hydroxy-cyclopentyl)-phenyl]-amide] | 11.7 |
| 9.5 | CC1(C)CC=C(c2cc(C3(C#N)CC3)ccc2NC(=O)c2nc(C#N)c[nH]2)CC1 [Example 4, 4-Cyano-1H-imidazole-2-carboxylic acid [4-(1-cyano-cyclopropyl)-2-(4,4-dimethyl-cyclohex-1-enyl)-phenyl]-amide] | 99 |
| 20 | CC1(C)CC=C(c2cc(C3(C#N)CCCCC3)ccc2NC(=O)c2nc(C#N)c[nH]2)CC1 [Example 14, 4-Cyano-1H-imidazole-2-carboxylic acid [4-(1-cyano-cyclohexyl)-2-(4,4-dimethyl-cyclohex-1-enyl)-phenyl}-amide] | 150 |
| 0.99 | CN1CCN(C2CCC(c3ccc(NC(=O)c4nc(C#N)c[nH]4)c(C4=CCC(C)(C)CC4)c3)CC2)CC1 (stereo not drawn) [Example 28, 4-Cyano-1H-imidazole-2-carboxylic acid {2-(4,4-dimethyl-cyclohex-1-enyl)-4-[4-(4-methyl-piperazin-1-yl)-cyclohexyl]-phenyl}-amide] | 10.2 |
